Data as given in patent US20130096160A1, “ARYLTHIAZOLYL PIPERIDINES AND RELATED COMPOUNDS AS MODULATORS OF SURVIVAL MOTOR NEURON (SMN) PROTEIN PRODUCTION” (Secretary, Department of Health and Human Services, priority 2010, published 2013).

Key:
[1] = test system: SMN2-luciferase reporter; assay: SMN2-luciferase reporter qHTS assay; type: cell-based, human; design: key to Curve Class: A curve class of 1.1 is a full agonist/antagonist; a curve class of 4 indicates the compound is inactive; conditions: for Curve Class: agonist/antagonist character of the concentration-response, lower values = more significant concentration-response; for Increased SMN2 activity: percent increase (or decrease) in SMN2 levels compared to control in which no test compound is added
Method in brief: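 SMN2 exon-7 splicing firefly-luciferase reporter cell line, ~2000 cells/well in phenol-red-free DMEM with 10% serum, allowed to adhere 10–12 h, then exposed to compounds for 2 days at 37 C, 5% CO2. Seven-point five-fold dilution series (e.g. 50 μM to 3.2 nM), OneGlo luminescence read, curves fitted to Hill equation.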

[2] = mouse, microsomes, 1 h, 1 μM, pH 7.4
Description: The test agent is incubated at 1 μM in duplicate with mouse microsomes at 37° C. for 60 min. The reaction contains 0.3 mg/mL microsomal protein in 100 mM potassium phosphate, 2 mM NADPH, 3 mM MgCl2, pH 7.4. A control is run for each test agent omitting NADPH to detect NADPH-free degradation. At indicated times, an aliquot is removed from each experimental and control reaction and mixed with an equal volume of ice-cold Stop Solution (0.3% acetic acid in acetonitrile containing haloperidol, diclofenac, or other internal standard). Stopped reactions are incubated at least ten minutes at −20° C., and an additional volume of water is added.
The samples are centrifuged to remove precipitated protein, and the supernatants are analyzed by LC/MS/MS, as described above, to quantitate the remaining parent. Data are reported as % remaining by dividing by the time zero concentration value.

[3] = test system: human SMN protein; assay: Western blot of SMN protein in SMA patient fibroblasts (3813); type: cell-based; conditions: 3813 fibroblasts, quantitative western blotting, different doses, FIG. 4
Description: Type I spinal muscular atrophy (SMA)-affected human primary fibroblasts (#GM03813) and carrier parents (#GM03814, parent and #GM03815, […]) are obtained live with low passage number from Coriell Cell Repositories. […] For detection of SMN protein in patient fibroblasts, 8,000 cells per cm^2 are plated 24 hours prior to drug addition. Fresh media and compound are added every 24 hours. After 72 hours, cells are harvested, washed with cold PBS, and lysed. Samples are subjected to polyacrylamide gel electrophoresis (PAGE). It is determined that 10 μg total protein per lane is within the linear range for immunoblot detection of SMN and alpha-tubulin. Western blots of the gel are probed for SMN with the 4B7 mouse monoclonal antibody (from the lab of Christian Lorson). A goat anti-mouse antibody (Santa Cruz Biotechnology/#sc-2005) conjugated to horseradish peroxidase (HRP) is used as the secondary antibody. Quantification of protein is performed by detecting chemiluminescence with a Fujifilm LAS-4000 Multifunctional Imaging System. […] We incubated a fibroblast cell line from a type I SMA patient (3813 cell line) with different doses of analogues and assessed the SMN protein level by quantitative western blotting (FIG. 4). We observed that analogue 8 m at concentration of 37 nanomolar increased the SMN protein level by 2-3 fold. […] This could be due with the intrinsic mechanism of action or to other causes, such us concentration dependent compound solubility.

Row | Compound | Curve Class [1] | Increased SMN2 activity [1] | Minus NADPH Parent remaining 1st [2] | Minus NADPH Parent remaining 2nd [2] | Minus NADPH Parent remaining mean [2] | Plus NADPH Parent remaining 1st [2] | Plus NADPH Parent remaining 2nd [2] | Plus NADPH Parent remaining mean [2] | SMN protein level versus dose (in words) [3]
1 | NC(=O)C1CCN(c2nc(-c3ccc(Br)cc3)cs2)CC1 [Example 23, 1-(4-(4-Bromophenyl)Thiazol-2-yl)Piperidine-4-Carboxamide] | 1.1 | 267.7% | 68% | 51% | 59% | 55% | 43% | 49% | 
2 | NC(=O)C1CCN(c2nc(-c3ccc4c(c3)OCCO4)cs2)CC1 [Example 48, 1-(4-(2,3-Dihydrobenzo[B][1,4]Dioxin-6-yl)Thiazol-2-yl)Piperidine-4-Carboxamide] | 1.1 | 459% | 16% | 15% | 16% | 1% | 0% | 1% | 
3 | CN(C)c1cccc(-c2csc(N3CCC(C(N)=O)CC3)n2)c1 [Example 63, 1-(4-(3-(Dimethylamino)Phenyl)Thiazol-2-yl)Piperidine-4-Carboxamide] | 1.1 | 504% | 69% | 66% | 67% | 0% | 0% | 0% | 
4 | O=C(O)C1CCN(c2nc(-c3ccc(Br)cc3)cs2)CC1 [Example 69, 1-(4-(4-Bromophenyl)Thiazol-2-yl)Piperidine-4-Carboxylic Acid] | 1.1 | 554.58% | 90% | 101% | 95% | 76% | 85% | 81% | 
5 | Cc1ccc(-c2cnc(N3CCC(C(N)=O)CC3)s2)cc1 [Example 119, 1-(5-P-Tolylthiazol-2-yl)Piperidine-4-Carboxamide] | 1.1 | 609.4% |  |  |  |  |  |  | up-regulation of SMN protein at concentrations ranging between 37 nM and 333 nM
6 | CC(C)Oc1cccc(-c2cnc(N3CCC(C(N)=O)CC3)s2)c1 [Example 123, 1-(5-(3-Isopropoxyphenyl)Thiazol-2-yl)Piperidine-4-Carboxamide] | 1.1 | 709.6% |  |  |  |  |  |  | up-regulation of SMN protein at concentrations ranging between 37 nM and 333 nM
7 | NC(=O)C1CCN(c2cc(-c3ccc4c(c3)OCCCO4)ncn2)CC1 [Example 142, 1-(6-(3,4-Dihydro-2H-Benzo[B][1,4]Dioxepin-7-yl)Pyrimidin-4-yl)Piperidine-4-Carboxamide] | 1.1 | 211.1% |  |  |  |  |  |  | 
8 | CN(C)c1cccc(-c2cc(N3CCC(C(N)=O)CC3)ncn2)c1 [Example 143, 1-(6-(3-(Dimethylamino)Phenyl)Pyrimidin-4-yl)Piperidine-4-Carboxamide] | 2.1 | 81.27% |  |  |  |  |  |  | 
9 | NC(=O)C1CCN(c2ncnc(-c3ccc4c(c3)OCCCO4)n2)CC1 [Example 144, 1-(4-(3,4-Dihydro-2H-Benzo[B][1,4]Dioxepin-7-yl)-1,3,5-Triazin-2-yl)Piperidine-4-Carboxamide] | 1.1 | 186.2% |  |  |  |  |  |  | 
10 | CN(C)c1cccc(-c2ncnc(N3CCC(C(N)=O)CC3)n2)c1 [Example 145, 1-(4-(3-(Dimethylamino)Phenyl)-1,3,5-Triazin-2-yl)Piperidine-4-Carboxamide] | 1.1 | 199.9% |  |  |  |  |  |  | 
11 | CCOC(=O)C1CCN(c2ncc(-c3ccc4c(c3)OCCCO4)s2)CC1 [Example 146, Ethyl 1-(5-(3,4-Dihydro-2H-Benzo[B][1,4]Dioxepin-7-yl)Thiazol-2-yl)Piperidine-4-Carboxylate] | 1.1 | 319.6% |  |  |  |  |  |  | 
12 | CN(C)c1cccc(-c2nc(N3CCC(C(N)=O)CC3)ncc2F)c1 [Example 149, 1-(4-(3-(Dimethylamino)Phenyl)-5-Fluoropyrimidin-2-yl)Piperidine-4-Carboxamide] | 1.1 | 373.2% |  |  |  |  |  |  | 
13 | COc1ccc(-c2cnc(N3CCC(C(N)=O)CC3)s2)cc1OC [Example 150, 1-(5-(3,4-Dimethoxyphenyl)Thiazol-2-yl)Piperidine-4-Carboxamide] | 1.1 | 209.7% |  |  |  |  |  |  | 
14 | O=C(Nc1ccccc1)C1CCN(c2ncc(-c3ccc4c(c3)OCCCO4)s2)CC1 [Example 151, 1-(5-(3,4-Dihydro-2H-Benzo[B][1,4]Dioxepin-7-yl)Thiazol-2-yl)-N-Phenylpiperidine-4-Carboxamide] | 1.1 | 353% |  |  |  |  |  |  | up-regulation of SMN protein at concentrations ranging between 37 nM and 333 nM
15 | CN(C)c1cccc(-c2ncc(F)c(N3CCC(C(N)=O)CC3)n2)c1 [Example 152, 1-(2-(3-(Dimethylamino)Phenyl)-5-Fluoropyrimidin-4-yl)Piperidine-4-Carboxamide] | 1.1 | 141.8% |  |  |  |  |  |  | 
16 | NC(=O)C1CCN(c2ncc(-c3ccc4c(c3)OC(F)(F)O4)s2)CC1 [Example 153, 1-(5-(2,2-Difluorobenzo[D][1,3]Dioxol-5-yl)Thiazol-2-yl)Piperidine-4-Carboxamide] | 1.1 | 598.4% |  |  |  |  |  |  | 
